# Counter-ions that a name gives are not always drawn.
# Legend:
# [1] = test system: GPMVs isolated from HeLa cells; experiment: High-throughput screen of the Cayman bioactive lipid library for effects on GPMV phase behavior (% phase separated vesicles, NBD-DSPE phase preference); design: species or system human; settings: for Effect on % phase separated vesicles: final drug concentration 1 μM, NBD-DSPE channel; for % phase separated z-score / Pordered z-score: Table 4; for Pordered z-score: NBD-DSPE
# Procedure: This approach is not practical for high throughput screening applications, which typically are performed at a single temperature. Changes in the percentage of phase-separated GPMVs were monitored at a single temperature in response to the addition of small molecules as a surrogate for measuring Tmisc directly (FIG. 1A). This approach requires that a significant fraction of GPMVs are phase separated under control conditions, such that experimentally-induced changes can be readily detected.
# In phase separated vesicles these markers are enriched in their preferred domains, such that a given vesicle contains a co-existing NBD-DSPE-rich phase and a DiD-rich phase. In contrast, NBD-DSPE and DiD colocalize in a single uniform phase in GPMVs that are not phase separated. We also optimized conditions to isolate and plate GPMVs in multi-well plates.
# To provide proof-of-concept, the Cayman lipid library containing ˜850 bioactive lipid-like compounds in the Vanderbilt High-throughput Screening Facility was screened, using […] of each compound across three independent screens. All screens were carried out using an automated microscope/high-content imaging system and robotic plate handler at RT. […] Compounds were initially scored based on their capacity to alter the percentage of phase separated vesicles (FIG. 2A).
# HeLa cells were obtained from ATCC (cat #CCL-2) and cultured at 37° C. in 5% CO2 in a humidified tissue culture incubator. […] In brief, cells were plated in 150 mm tissue culture dishes the day before the experiment, to yield a confluence of 70-80% the day of the experiment. To generate GPMVs, cells were rinsed twice in 10 ml of GPMV buffer (2 mM DTT, 25 mM formaldehyde, 150 mM NaCl, 10 mM HEPES, 2 mM CaCl2), pH=7.4) and subsequently incubated in 12 ml of GPMV buffer at 37° C. with gentle shaking at 70 rpm for 1.5 h. The raft marker NBD-DSPE (1,2-distearoyl-sn-glycero-3-phosphoethanolamine-N-(7-nitro-2-1,3-benzoxadiazol-4-yl; Avanti Polar Lipids) and the non-raft marker DiD (1,1′-dioctadecyl-3,3,3′,3′-tetramethylindodicarbocyanine perchlorate; cat #D307 Thermo Scientific) were added from stock solutions in ethanol to the GPMV suspension at final concentrations of 5-6 μg/ml and 1 μg/ml, respectively, for the initial screenings. For some experiments, cells were prelabelled with 5 μg/ml DiD for 8 min at 4° C. and washed several times prior to GPMVs generation. Screening was performed the same day that GPMVs were generated.
# […] GPMVs suspension in GPMV buffer was then added to each well of a 96-well plate to obtain a final drug concentration of 1 μM. The GPMVs were allowed to settle to the bottom of the plates for 1.5 h prior to imaging. Samples were prepared and imaged at RT. The screen was repeated on three different days using three separately prepared batches of GPMVs (3 biological replicates).
# Image acquisition was performed with an ImageXpress Micro XL automated microscope (Molecular Devices) using a Nikon 40X 0.6 NA Super Plan Fluor ELWD objective and a Lumencor Sola solid-state light source. Laser autofocus was employed at each site to obtain the best focus z-plane for each channel. […] Sixteen sites were captured per well using a 4.2 MP widefield scientific cMOS camera with a camera binning of 1. Each plate took approximately 1.3 h to image. Multiple plates were loaded to a plate carousel (ThermoScientific), shuttled to/from the ImageXpress via a ThermoScientific CRS F3 robot arm, and automatically run through the Momentum scheduling software (Thermo). To analyze the data, images and metadata were exported as TIFF files and subjected to image analysis using a custom MATLAB-based program as described below.
# [2] = test system: GPMVs generated from HeLa cells; experiment: Tmisc measurements (temperature scan of % phase separated GPMVs); design: species or system human; settings: 1 μM C6 ceramide or 10 μM TLCK, 2 independent experiments
# Procedure: GPMVs were generated from HeLa cells and either labelled with NBD-DSPE and DiI as described above (TLCK experiments) or labelled with DiI-C12 (C6-cermide experiments). They were then treated with 1 μM C6 ceramide (Sigma Aldrich) or 10 μM TLCK (Cayman) for 1-2 h, mounted in a chamber formed from two coverslips separated by a silicon spacer in the continued presence of drug or an equivalent volume of DMSO (final concentration=0.1 mol %), and allowed to settle for 1 h prior to being imaged.
# Tmisc measurements for GPMVs treated with C6-ceramide were performed using a Zeiss LSM 510 confocal microscope. […] DiI-C12 fluorescence was excited using the 543 nm line of a HeNe laser and images were collected at 1× digital zoom. […] For these datasets, the number of phase separated GPMVs was scored manually. […]
# Tmisc measurements for GPMVs treated with TLCK were performed using a Zeiss A880 confocal microscope. […] NBD-DSPE fluorescence was excited using a 458 Argon laser line and detected using a 458/548 dichroic and 482-614 nm band pass filter. DiD fluorescence was excited using a 633 nm HeNe laser and emission was collected using a 633/698.5 dichroic and a 638-759 nm band pass filter. […] For these datasets, the percentages of phase separated GPMVs were scored using the “colocalization” method using the MATLAB algorithm described above. […]
structure (smiles),measurement,setting,value
CCCCCCCCCCCCC/C=C/[C@@H](O)[C@H](CO)NC(=O)CCCCC [C6 Ceramide (d18:1/6:0)],Effect on % phase separated vesicles,"[1]; HeLa GPMVs, RT",↓
same,% phase separated z-score,"[1]; HeLa GPMVs, final 1 μM, RT",−3.01
same,Pordered z-score,"[1]; HeLa GPMVs, final 1 μM, RT",0.76
same,change in Tmisc relative to DMSO,[2],lowered Tmisc
"Cc1ccc(S(=O)(=O)N[C@@H](CCCCN)C(=O)CCl)cc1 [TLCK hydrochloride, Nα-Tosyl-Lys Chloromethyl Ketone]",Effect on % phase separated vesicles,"[1]; HeLa GPMVs, RT",↑
same,Effect on Pang(ϕ),"[1]; NBD-DSPE raft phase preference, HeLa GPMVs, final 1 μM, RT",↑
same,% phase separated z-score,"[1]; HeLa GPMVs, final 1 μM, RT",6.73
same,Pordered z-score,"[1]; HeLa GPMVs, final 1 μM, RT",5.69
same,raft modulation in the GPMV model,[1]; screen result in words,potent raft stabilizer
same,change in Tmisc relative to DMSO,[2],increased Tmisc
